Results as given in article PMC8619914, “Development of Novel Peptides for the Antimicrobial Combination Therapy against Carbapenem-Resistant Acinetobacter baumannii Infection” (Pharmaceutics, 2021).
Converted amounts (≈) assume the structure as drawn. Like-named read-outs stand apart in the source and are kept apart here. Where no end group is shown, it is not given here.

Tests used:
[1] = tested on: Acinetobacter baumannii (KCCM 40203); test: microbe, parasite or virus in culture; conditions: for MIC: Acinetobacter baumannii, KCCM40203, 16 h, read-out: Minimum Inhibitory Concentration, A. baumanii
Description: (§1) The Gram-negative bacterial strain Escherichia coli (KCTC 1682) and Gram-positive bacterial strain Staphylococcus aureus (KCTC 1621) were purchased from the Korean Collection for Type Cultures (Jeongeup, Korea). Acinetobacter baumannii (KCCM 40203) were purchased from Korea Culture Center of Microorganisms (Seoul, Korea). Additionally, five carbapenem-resistant Acinetobacter baumanii C1–C5 (CRAB C1–C5), which have the OXA-23 gene with carbapenem-resistance were collected from the patients with CRAB bacteremia, who presented symptoms and signs of infection at Korea University Anam Hospital (Seoul, Korea) (IRB registration no. 2020AN0157). The minimum inhibitory concentrations (MIC) of the AMP and antibiotics against the various bacterial strains were assessed using the serial dilution method on Muller–Hinton (MH) media, as described previously. […] Absorbance at 600 nm was measured using a SpectraMAX microplate reader (Molecular Devices, San Jose, CA, USA).
(§2) Measurement of the minimum inhibitory concentrations (MIC) was conducted to determine the effect of the hydrophobicity of each antimicrobial peptide on its antimicrobial activity. MIC was defined as the minimum concentration that killed more than 99% of bacteria; it was measured against two standard Gram-negative bacteria (E. coli and A. baumanii), five clinically isolated CRAB (C1–C5), and one Gram-positive bacteria (S. aureus).

CRAB C1 [2] = test: microbe, parasite or virus in culture; conditions: 16 h; for MIC: Acinetobacter baumannii, read-out: Minimum Inhibitory Concentration, CRAB C1
Description: as §1, §2

CRAB C2 [3] = test: microbe, parasite or virus in culture; conditions: 16 h; for MIC: Acinetobacter baumannii, read-out: Minimum Inhibitory Concentration, CRAB C2
Description: as §1, §2

CRAB C3 [4] = test: microbe, parasite or virus in culture; conditions: 16 h; for MIC: Acinetobacter baumannii, read-out: Minimum Inhibitory Concentration, CRAB C3
Description: as §1, §2

CRAB C4 [5] = test: microbe, parasite or virus in culture; conditions: 16 h; for MIC: Acinetobacter baumannii, read-out: Minimum Inhibitory Concentration, CRAB C4
Description: as §1, §2

CRAB C5 [6] = test: microbe, parasite or virus in culture; conditions: 16 h; for MIC: Acinetobacter baumannii, read-out: Minimum Inhibitory Concentration, CRAB C5
Description: as §1, §2

[7] = tested on: Escherichia coli (KCTC 1682); test: microbe, parasite or virus in culture; conditions: for MIC: Escherichia coli, KCTC1682, 16 h, read-out: Minimum Inhibitory Concentration, E. coli
Description: as §1, §2

[8] = tested on: Staphylococcus aureus (KCTC 1621); test: microbe, parasite or virus in culture; conditions: for MIC: Staphylococcus aureus, KCTC1621, 16 h, read-out: Minimum Inhibitory Concentration, S.aureus
Description: as §1, §2

[9] = tested on: Gram-negative bacterial strains; test: organism not typed; conditions: for MIC: read-out: GM (mean MIC of Gram-negative bacterial strains)
Description: as §1
Geometric means (GM) were calculated to compare the relative antimicrobial activities of the analogs against Gram-negative bacteria. […] Next, the antibacterial mechanisms of peptides were investigated.

CRAB C1 [10] = test: microbe, parasite or virus in culture; conditions: 16 h; for MIC: Acinetobacter baumannii, read-out: MIC alone, CRAB C1
Method: (§3) The synergistic effects of AMPs and antibiotics were measured using checkerboard assays. Serial dilutions of PapMA-3 and antibiotics were performed from 1 to […] of the MIC. Samples were then cross-mixed and cultured in MH medium with 2 × 10^5 CFU·ml^−^1 bacteria. Results were recorded after 16 h of incubation at 37 °C. The fractional inhibitory concentration index (FICI) was calculated according to the European Committee on Antimicrobial Susceptibility (EUCAST).
(§4) The ability of PapMA-3 to facilitate these antibiotics in penetrating the bacterial membranes of Gram-negative bacteria was investigated.

CRAB C2 [11] = test: microbe, parasite or virus in culture; conditions: 16 h; for MIC: Acinetobacter baumannii, read-out: MIC alone, CRAB C2
Method: as §3, §4

CRAB C3 [12] = test: microbe, parasite or virus in culture; conditions: 16 h; for MIC: Acinetobacter baumannii, read-out: MIC alone, CRAB C3
Method: as §3, §4

CRAB C4 [13] = test: microbe, parasite or virus in culture; conditions: 16 h; for MIC: Acinetobacter baumannii, read-out: MIC alone, CRAB C4
Method: as §3, §4

CRAB C5 [14] = test: microbe, parasite or virus in culture; conditions: 16 h; for MIC: Acinetobacter baumannii, read-out: MIC alone, CRAB C5
Method: as §3, §4

CRAB C1 biofilm = test: Biofilm inhibition, crystal violet; format: cell-based, carbapenem-resistant Acinetobacter baumannii; conditions: Acinetobacter baumannii, read-out: percentage of biofilm inhibition
Method: CRAB C1 cells (2 × 10^5 CFU·mL^−^1) were incubated with PapMA-3 and antibiotics in a tissue-culture well plate in MH medium containing 0.2% glucose for 16 h at 37 °C. The cells were stained with 0.1% (w/v) crystal violet in 0.25% (v/v) acetic acid for 1 h at room temperature; the dye complex was dissolved with ethanol. Absorbance at 595 nm was measured using SpectraMAX microplate reader (Molecular Devices) to quantify the biofilm formation.
Biofilms were quantified by staining with crystal violet. (A) Absorbance of crystal violet-stained biofilms with treatment of PapMA-3 and antibiotics at a concentration range of 32 to 512 μg·mL^−1, assessed at 595 nm. […] CRAB C1 without peptides or antibiotics served as the control (red). Statistical analysis was performed using two-way ANOVA with Dunnett’s comparison test. The values are expressed as the mean ± SEM of three independent experiments and are statistically significant at ** p < 0.01 and *** p < 0.001. ns, not significant.

CRAB C1 [15] = test: FE-SEM of membrane damage; format: cell-based, carbapenem-resistant Acinetobacter baumannii; conditions: erythromycin 128 μg·mL^−1 alone, 1 h and 2 h
Method: The cells were washed using PBS, fixed in 1% osmium tetroxide for 1 h, and dehydrated using a graded ethanol series. After dehydration, ethanol contents in the sample were replaced with varying ratio (2:1, 1:1, 1:2, 0:1 v/v) of ethanol–isoamyl acetate mixture. The cells were fixed on a glass slide with hexamethyldisilzane, dried under reduced pressure, and platinum-coated; they were visualized using an FE-SEM (SU8020; Hitachi, Tokyo, Japan).
Figure 7 FE-SEM images of CRAB C1 treated with PapMA-3. (A) Only CRAB C1. […] (F–I) same experiments after incubation for 1 h, respectively.

HEK-293 cells = test: Cytotoxicity, WST-8 Cell Proliferation Assay; format: cell-based, human; conditions: 64 μg·mL^−1, 24 h, WST-8
Method: (§5) Human embryonic kidney (HEK)-293 cells, purchased from Korean cell line bank (Seoul, Korea) were cultured in Dulbecco’s modified Eagle’s medium (DMEM) (Welgene, Gyeong-san, Korea) with 10% fetal bovine serum, 1% penicillin-streptomycin at 37 °C in a humidified 5% CO2 incubator as described previously. The cytotoxicity of the six PapMA peptides and melittin was determined using WST-8 Cell Proliferation Assay Kit (Biomax Co, Ltd., Seoul, Korea), according to the manufacturer’s instructions. […] The absorbance was measured at 450 nm using a SpectraMAX microplate reader (Molecular Devices).
Figure 4 Cytotoxicity of PapMA analogs. (A) Cytotoxicity of PapMA and its analogs against HEK-293 cell. […] (B) Hemolysis activity of PapMA analogs against sRBC. The peptide was serially diluted and incubated with sRBC for 1 h with melittin as a control. Statistical analysis was performed using two-way ANOVA with Dunnett’s comparison test. The values are expressed as the mean ± SEM of three independent experiments and are statistically significant at ** p < 0.01; and *** p < 0.001. ns, not significant.

HaCaT cells = test: Cytotoxicity, WST-8 Cell Proliferation Assay; format: cell-based, human; conditions: 32 μg·mL^−1, 24 h and 48 h, compared to blank control
Method: as §5
Figure 10 Cytotoxicity of PapMA-3 (A) Cytotoxicity of PapMA-3 against HEK-293 cells at 24 h and 48 h. (B) Cytotoxicity of PapMA-3 against HaCaT cell at 24 h and 48 h. Statistical analysis was performed using two-way ANOVA with Dunnett’s comparison test. The values are expressed as the mean ± SEM of three independent experiments and are statistically significant at * p < 0.05; *** p < 0.001; ns, not significant.

CRAB C1 [16] = conditions: 50% human serum in MH medium, 16 h, 37 °C; measure of serum stability
Method: Antibacterial activity of PapMA-3 in combination with imipenem was measured against CRAB C1 in the presence of 50% human serum. The treated cells were incubated for 16 h at 37 °C, and the absorbance at 600 nm was measured using a SpectraMAX microplate reader (Molecular Devices).

[17] = MH media, 2 × 10^5 CFU·mL^−1, 37 °C, absorbance 600 nm
[18] = checkerboard table, single agent, MH medium, 37 °C

Compound | MIC [1] [µg/mL] | MIC (CRAB C1 [2]) [µg/mL] | MIC (CRAB C2 [3]) [µg/mL] | MIC (CRAB C3 [4]) [µg/mL] | MIC (CRAB C4 [5]) [µg/mL] | MIC (CRAB C5 [6]) [µg/mL] | MIC [7] [µg/mL] | MIC [8] [µg/mL] | MIC [9] [µg/mL] | MIC (CRAB C1 [10]) [µg/mL] | MIC (CRAB C2 [11]) [µg/mL] | MIC (CRAB C3 [12]) [µg/mL] | MIC (CRAB C4 [13]) [µg/mL] | MIC (CRAB C5 [14]) [µg/mL] | other results
CC[C@H]1OC(=O)[C@H](C)[C@@H](O[C@H]2C[C@@](C)(OC)[C@@H](O)[C@H](C)O2)[C@H](C)[C@@H](O[C@@H]2O[C@H](C)C[C@H](N(C)C)[C@H]2O)[C@](C)(O)C[C@@H](C)C(=O)[C@H](C)[C@@H](O)[C@]1(C)O [Erythromycin] | 32 (≈ 43.6 µM) | > 512 | 512 (≈ 698 µM) | 512 (≈ 698 µM) | > 512 | > 512 | 16 (≈ 21.8 µM) | 0.25 (≈ 0.341 µM) | 592 | > 512 | 512 | 512 | > 512 | > 512 | inhibition at 32 µg/mL (CRAB C1 biofilm; 32 μg·mL^−1, CRAB C1, compared to the control): 37.7%; membrane integrity of CRAB C1 (FE-SEM) (CRAB C1 [15]): not altered
CN[C@H](CC(C)C)C(=O)N[C@H]1C(=O)N[C@@H](CC(N)=O)C(=O)N[C@H]2C(=O)N[C@H]3C(=O)N[C@H](C(=O)N[C@H](C(=O)O)c4cc(O)cc(O)c4-c4cc3ccc4O)[C@H](O)c3ccc(c(Cl)c3)Oc3cc2cc(c3O[C@@H]2O[C@H](CO)[C@@H](O)[C@H](O)[C@H]2O[C@H]2C[C@](C)(N)[C@H](O)[C@H](C)O2)Oc2ccc(cc2Cl)[C@H]1O [Vancomycin] | 256 (≈ 177 µM) | 256 (≈ 177 µM) | 256 (≈ 177 µM) | 256 (≈ 177 µM) | 512 (≈ 353 µM) | 256 (≈ 177 µM) | 128 (≈ 88.3 µM) | 0.5 (≈ 0.345 µM) | 274 | 256 | 256 | 256 | 512 | 256 | inhibition at 32 µg/mL (CRAB C1 biofilm): 77.2%
RWKIFKKIPKFLHSAKKW-NH2 [PapMA-3] | – | – | – | – | – | – | – | – | – | – | – | – | – | – | Minimum Inhibitory Concentration, A. baumanii ([1]; KCCM 40203, 16 h): 16 µg/mL; Minimum Inhibitory Concentration, A. baumannii, MH Media ([1]; KCCM 40203, 16 h): 16 µg/mL; Minimum Inhibitory Concentration, CRAB C1, MH Media (CRAB C1 [2]; MH media without serum, 37 °C): 16 µg/mL; Minimum Inhibitory Concentration, CRAB C1 (CRAB C1 [2]; [17]): 16 µg/mL; Minimum Inhibitory Concentration, CRAB C2 (CRAB C2 [3]; [17]): 16 µg/mL; Minimum Inhibitory Concentration, CRAB C3 (CRAB C3 [4]; [17]): 16 µg/mL; Minimum Inhibitory Concentration, CRAB C4 (CRAB C4 [5]; [17]): 32 µg/mL; Minimum Inhibitory Concentration, CRAB C5 (CRAB C5 [6]; [17]): 16 µg/mL; Minimum Inhibitory Concentration, E. coli, MH Media ([7]; KCTC 1682, 16 h): 16 µg/mL; Minimum Inhibitory Concentration, E. coli ([7]; MH media, 2 × 10^5 CFU·mL^−1, 37 °C, 16 h, absorbance 600 nm, MIC kills more than 99% of bacteria): 16 µg/mL; Minimum Inhibitory Concentration, S.aureus ([8]; KCTC 1621, 16 h): 32 µg/mL; GM (mean MIC of Gram-negative bacterial strains) ([9]; seven Gram-negative strains, 256 assumed for MIC > 128 and 1024 for MIC > 512 μg·mL^−1): 18 µg/mL; survival rate of HEK-293 cells (HEK-293 cells): 100%; cell proliferation and viability, HaCaT (HaCaT cells): remained unaltered; MIC alone, CRAB C1 (CRAB C1 [10]; [18]): 16 µg/mL; MIC alone, CRAB C2 (CRAB C2 [11]; [18]): 16 µg/mL; MIC alone, CRAB C3 (CRAB C3 [12]; [18]): 16 µg/mL; MIC alone, CRAB C4 (CRAB C4 [13]; [18]): 32 µg/mL; MIC alone, CRAB C5 (CRAB C5 [14]; [18]): 16 µg/mL; Minimum Inhibitory Concentration, CRAB C1, + Serum (50%) (CRAB C1 [16]): 64 µg/mL
